Structures can show the parent of a compound that is named as a salt. Where two headings read alike, the source gives them in different places.
System: murine neural precursor cells (neurosphere cultures)
Experiment: HTS of LOPAC library against secondary neurosphere cultures, MTT proliferation assay at 3 μM, day 7 (z score, P value)
Format: cell-based, mouse
[1] = yes/no: significantly inhibited neurosphere proliferation (P<0.01) in primary screen
[2] = LOPAC library screen at 3 μM, secondary neurosphere cultures, MTT
[3] = LOPAC primary screen, neurosphere MTT proliferation, 3 μM, day 7
[4] = primary LOPAC screen, 3 μM, MTT, neurosphere proliferation
[5] = yes/no: significantly inhibited neurosphere proliferation in the primary screen
[6] = LOPAC library screen, 3 μM, MTT, secondary neurosphere cultures, day 7
[7] = yes/no: significantly inhibited neurosphere proliferation (P<0.01) in the primary screen
[8] = LOPAC screen, neurosphere MTT proliferation, 3 μM, day 7
[9] = yes/no: significantly inhibited neurosphere proliferation in primary screen
[10] = LOPAC library screen, 3 μM, MTT, neurosphere cultures
[11] = yes = significantly inhibited neurosphere proliferation (P<0.01) in the primary screen

CCCCCCN(CCCCCC)C(=O)Cc1c(-c2ccc(F)cc2)[nH]c2ccccc12 [N,N-Dihexyl-2-(4-fluorophenyl)indole-3-acetamide]
Z Score (168 h, 3 µM): 1.916 | Z score (168 h, 3 µM): 1.916 | Activity [1]: no

CCN(CC)CC(=O)Nc1c(C)cccc1C [Lidocaine hydrochloride]
Z Score [2]: −0.1111 | Z score [3]: −0.111 | Activity [1]: no

NC(CCP(=O)(O)O)C(=O)O (racemic) [(±)-2-Amino-4-phosphonobutyric acid]
Z score [4]: 1.893 | Activity [5]: no

S-(−)-Eticlopride hydrochloride
Z Score: −5.158

CN1[C@@H]2CC[C@H]1C[C@@H](OC(c1ccccc1)c1ccccc1N)C2 (some centres unmarked) [Aminobenztropine]
Z Score [6]: −1.455 | Z score [3]: −1.455 | Activity [7]: no

O=C(OCCN1CCCCC1)c1c[nH]c2ccccc12 [SB 203186]
Z Score: 0.9365 | Z score [8]: 0.937 | Activity [1]: no

Cc1cc(C(C)(C)C)cc(C)c1CC1=NCCN1 [Xylometazoline hydrochloride]
Z Score: 0.296 | Z score [4]: 0.296 | Activity [5]: no

Iproniazid phosphate
Z Score [2]: −0.2492 | Z score [3]: −0.249 | Activity [1]: no

Fc1ccc(C(OCCCc2c[nH]cn2)c2ccc(F)cc2)cc1 [3-(1H-Imidazol-4-yl)propyl di(p-fluorophenyl)methyl ether]
Z score [3]: −0.015 | Activity [1]: no

CC(N)=O [Acetamide]
Z Score (168 h, 3 µM): −1.94 | Z score (168 h, 3 µM): −1.940 | Activity [9]: no

COc1cc(Cc2cnc(N)nc2N)cc(OC)c1OC [Trimethoprim]
Z Score [6]: −1.23 | Z score [4]: −1.230 | Activity [5]: no

O=C(O)c1ccccc1Nc1cccc(OCc2ccc3ccccc3n2)c1 [SR 2640]
Z Score: −1.548 | Z score [3]: −1.548 | Activity [9]: no

C[N+]1(C)CCC(OC(=O)C(c2ccccc2)c2ccccc2)CC1.[I-] [4-DAMP methiodide]
Z Score [10]: 0.3311 | Z score [8]: 0.331 | Activity [1]: no

C/C(O)=C(\C#N)C(=O)Nc1cc(Br)ccc1Br [LFM-A13]
Z Score: 4.5 | Z score [3]: 4.500 | Activity [1]: no

CC(N)(Cc1ccc(O)cc1)C(=O)O (racemic) [DL-alpha-Methyl-p-tyrosine]
Z Score: −3.908 | Z score [3]: −3.908 | Activity [7]: yes

COc1ccc(CN(CCN(C)C)c2ccccn2)cc1 [Pyrilamine maleate]
Z Score [10]: 0.9893 | Z score [3]: 0.989 | Activity [11]: no

N#C/C(=C\c1ccc(O)c(O)c1)C(=O)NCCCc1ccccc1 [Tyrphostin AG 555]
Z Score [2]: −0.6812 | Z score [4]: −0.681 | Activity [5]: no

COc1ccc2c(c1)c(CC(=O)O)c(C)n2C(=O)c1ccc(Cl)cc1 [Indomethacin]
Z Score [2]: −0.3563 | Z score [3]: −0.356 | Activity [7]: no

C[N+](C)(C)CC#CCOC(=O)Nc1cccc(Cl)c1.[Cl-] [McN-A-343]
Z Score: −0.08897 | Z score [8]: −0.089 | Activity [1]: no

CN(C)CCCN1c2ccccc2Sc2ccc(Cl)cc21 [Chlorpromazine hydrochloride]
Z Score [10]: 0.7506 | Z score [3]: 0.751 | Activity [7]: no

C[N+](C)(C)CCOC(N)=O [Carbachol]
Z Score [10]: −0.03381 | Z score [8]: −0.034 | Activity [1]: no

CC(NCCc1ccc(O)cc1)C(O)c1ccc(O)cc1 (centres unmarked) [Ritodrine hydrochloride]
Z Score [6]: −2.332 | Z score [3]: −2.332 | Activity [7]: yes

Cl.Cl.Cl.NCCCCNCCCN [Spermidine trihydrochloride]
Z Score [10]: 1.259 | Z score [3]: 1.259 | Activity [9]: no

CC[C@@H](CO)NC(=O)[C@@H]1C=C2c3cccc4[nH]cc(c34)C[C@H]2N(C)C1 [Methylergonovine maleate]
Z Score: −0.7846 | Z score [3]: −0.785 | Activity [11]: no

COc1ccc2[nH]cc(CCN)c2c1.Cl [O-Methylserotonin hydrochloride]
Z Score: −0.172 | Z score [3]: −0.172 | Activity [11]: no

CNC(=O)OCC[N+](C)(C)C.[Cl-] [Methylcarbamylcholine chloride]
Z Score: 1.913 | Z score [3]: 1.913 | Activity [11]: no

Cc1cnc(C(=O)NCCc2ccc(S(=O)(=O)NC(=O)NC3CCCCC3)cc2)cn1 [Glipizide]
Activity: no | Z Score [2]: −0.8295 | Z score [3]: −0.830

COc1ccc(CCN(C)CCc2ccc(OC)c(OC)c2)cc1OC.Cl [YS-035 hydrochloride]
Z Score: 0.04311 | Z score [3]: 0.043 | Activity [7]: no

WB 64
Z Score: −1.683 | Z score [4]: −1.683 | Activity [5]: no

COc1ccc(C(=O)N2CCCC2=O)cc1 [Aniracetam]
Z Score [6]: −1.355 | Z score [4]: −1.355 | Activity [5]: no

Fc1ccc(C(OCCN2CCN(CCCc3ccccc3)CC2)c2ccc(F)cc2)cc1 [GBR-12909 dihydrochloride]
Z Score [6]: −10.9 | Z score [3]: −10.899

NCC(=O)NCCC(c1ccccc1)c1ccccc1 [N-(3,3-Diphenylpropyl)glycinamide]
Z Score [6]: −1.243 | Z score [3]: −1.243 | Activity [1]: no

NCCCCNS(=O)(=O)c1ccc2c(Cl)cccc2c1 [N-(4-Aminobutyl)-5-chloro-2-naphthalenesulfonamide]
Z score (168 h, 3 µM): −0.923 | Activity [9]: no

CN1C2CCC1CC(OC(=O)c1cc(Cl)cc(Cl)c1)C2 (centres unmarked) [ML-9]
Z Score: −9.322 | Z score [3]: −9.322

Cc1nc(N=Nc2ccc(C(=O)O)cc2)c(COP(=O)(O)O)c(C=O)c1O [MRS 2159]
Z Score: −0.2666 | Z score [3]: −0.267 | Activity [11]: no

CC1(C)CCC(NC(=O)[C@@H](N)CCC(=O)O)CC1 [CR 2249]
Z Score (168 h, 3 µM): −1.002 | Z score (168 h, 3 µM): −1.002 | Activity [11]: no

O=C(O)[C@@H]1C[C@H](C(=O)O)N1 [cis-Azetidine-2,4-dicarboxylic acid]
Z Score (168 h, 3 µM): −2.251 | Z score (168 h, 3 µM): −2.251 | Activity [5]: no

CC(C)C(=O)Nc1ccc([N+](=O)[O-])c(C(F)(F)F)c1 [Flutamide]
Z Score [2]: −0.1133 | Z score [3]: −0.113

CC(NC(C)(C)C)C(=O)c1cccc(Cl)c1 (centres unmarked) [Bupropion hydrochloride]
Z Score [10]: 0.2671 | Z score [8]: 0.267 | Activity [1]: no

NCCCP(=O)(O)O [3-Aminopropylphosphonic acid]
Z Score: −2.331 | Z score [3]: −2.331 | Activity [7]: yes

Cc1nc2sccn2c(=O)c1CCN1CCC(=C(c2ccccc2)c2ccc(F)cc2)CC1 [Diacylglycerol kinase inhibitor I]
Z Score: −1.782 | Z score [8]: −1.782 | Activity [1]: no

(−)-MK-801 hydrogen maleate
Z Score: 1.133 | Z score [3]: 1.133 | Activity [11]: no

O=c1ccc2ccc(O)c(O)c2o1 [Daphnetin]
Activity: no | Z Score (168 h, 3 µM): −0.9798 | Z score (168 h, 3 µM): −0.980

O=c1nc2[nH]c3ccccc3nc-2c(=O)[nH]1 [Alloxazine]
Z Score [2]: −0.4424 | Z score [4]: −0.442 | Activity [5]: no

CCCN(CCC)C1Cc2cc(OC)c(OC)cc2C1.O=C(O)/C=C\C(=O)O [U-99194A maleate]
Z Score: 1.255

Nc1nc2[nH]c(=O)cnc2c(=O)[nH]1 [Isoxanthopterin]
Z Score: 0.2339 | Z score [3]: 0.234 | Activity [1]: no

Cl.NCC(O)c1ccc(O)cc1 (racemic) [(±)-Octopamine hydrochloride]
Z score [3]: −1.567 | Activity [9]: no

Cl.Cl.N=C(N)c1ccc(N)cc1 [4-Aminobenzamidine dihydrochloride]
Z Score: −1.287 | Z score [3]: −1.287 | Activity [11]: no

Foliosidine
Z Score: −0.0969 | Z score [3]: −0.097 | Activity [1]: no

O=C(O)c1cc[c]([Hg][Cl])cc1 [4-Chloromercuribenzoic acid]
Z Score: −0.03193 | Z score [8]: −0.032 | Activity [1]: no

COc1ccccc1N1CCN(CCN(C(=O)c2ccc(F)cc2)c2ccccn2)CC1.Cl.Cl [p-MPPF dihyrochloride]
Z score [3]: −2.160 | Activity [11]: no

CCCn1cnc2c1c(=O)n(CCCCC(C)=O)c(=O)n2C [Propentofylline]
Z Score [10]: 0.1563 | Z score [3]: 0.156 | Activity [9]: no

Cc1cccc(C#Cc2ccccc2)n1.Cl [6-Methyl-2-(phenylethynyl)pyridine hydrochloride]
Z Score (168 h, 3 µM): 0.09366 | Z score (168 h, 3 µM): 0.094 | Activity [11]: no

CC(C)NCC(O)COc1ccc(CC(N)=O)cc1 (centres unmarked) [(B1)-Atenolol]
Z Score [2]: −0.6583

NCS-356
Z Score: 2.833 | Z score [3]: 2.833 | Activity [11]: no

CC(C)(C)[C@]1(O)CCN2C[C@H]3c4ccccc4CCc4cccc(c43)[C@@H]2C1.Cl [(B1)-Butaclamol hydrochloride]
Z Score: −5.934

Cl.Cl.NCCc1c[nH]cn1 [Histamine dihydrochloride]
Activity: no | Z Score: −1.476 | Z score: −1.476

CNCCCN1c2ccccc2CCc2ccccc21 [Desipramine hydrochloride]
Z Score [10]: 0.1226 | Z score [8]: 0.123 | Activity [1]: no

CC1(C)CCC=[N+]1[O-] [5,5-Dimethyl-1-pyrroline-N-oxide]
Z Score (168 h, 3 µM): −1.666 | Z score (168 h, 3 µM): −1.666 | Activity [1]: no
